In patent US20230301982A1, “N'-(2-CHLORO-6-METHYLBENZOYL)-4-METHYL-3-[2-(3-QUINOLYL)ETHYNYL]-BENZOHYDRAZIDE FOR TREATMENT OF ALZHEIMER'S DISEASE” (SUN PHARMA ADVANCED RESEARCH COMPANY LIMITED, priority 2020, published 2023):

Columns and labels:
K562 cells = test: In-vitro Cell Proliferation Assay (K562 cells; measure of endogenous Bcr-Abl kinase inhibition); format: cell-based; conditions: for inhibition at 0.0001 µM: Homo sapiens, read-out: % inhibition (at 0.1 nM), 0.1 nM, cell proliferation of K562 cells
Text: (For experimental procedure, refer to the ‘416 publication under In-vitro Cell Proliferation Assay heading).

Aβ42 = test: Estimation of Aβ42 and Aβ42/Aβ40 ratio in TgSwDI mice using ELISA; format: in vivo; conditions: o.d., 96 days, TgSwDI mice cortex
Experimental: Female TgSwDI (expresses human APP gene containing Swedish, Dutch, and Iowa mutations) of 5-7 months of age were used for the study. Animals were habituated for handling for one week prior to initiation of dosing. All experiments involving animals were performed in accordance with institutional guidelines for the use and care of animals after approval from the Institutional Animal Ethics Committee (IAEC), Sun Pharma Advanced Research Company (SPARC) Ltd. Mice were housed at an ambient temperature of 25° C. under 12 hours light-dark cycle with free access to food chow and drinking water. Animals were treated with assigned treatments p.o., o.d., for a period of 96 days. […] After completion of treatment phase, mice from each treatment group were perfused with ice-cold phosphate buffered saline (PBS, pH 7.4), brain was excised, cortex was isolated and processed for preparation of lysates as per protocol provided by Invitrogen ELISA kit. Estimation of Aβ42 and Aβ40 were carried out as per the instructions provided by Invitrogen user manual. Ratio of Aβ42/40 was calculated.

Tg APP/PS1 mice = test: Contextual fear conditioning (CFC): freezing behaviour in Tg APP/PS1 mice; format: in vivo; conditions: 24 hours after fear conditioning
Experimental: (§1) Six month old male APP/PS1 mice which show little overt behavioral or pathological phenotype of AD were used. All experiments involving animals were performed in accordance with institutional guidelines for the use and care of animals after approval from the Institutional Animal Ethics Committee (IAEC), Central Animal Facility, Indian Institute of Science. Only male mice were used for the study and were housed at ambient temperature of 25° C. under 12 hours light-dark cycle with free access to food chow and drinking water. All mice were dosed once a day, orally with placebo for Compound 1 at 30 and 45 mg/kg for a period of three months.
(§2) After completion of treatment phase, mice were subjected to behavioural assessment using CFC test, followed by biochemical estimation of brain Aβ using an enzyme-linked immunosorbent assay (ELISA) and Aβ plaque load using Immunohistochemistry (IHC).
The CFC test was performed using an apparatus from San Diego Instruments (CA, USA). The CFC training context was rectangular in shape, identity of the context was maintained with the presence of distinct odor (2% acetic acid, v/v). The conditioning chamber was cleaned with 70% ethanol before and after each session. […] Contextual fear memory was assessed by returning mice to the training context 24 hours after fear conditioning and analyzing freezing during a test period of 2 minutes. […]

[1] = Concentration of compounds in brain and plasma; format: in vivo
total Aβ = test: Total Aβ content in cortex of Tg APP/PS1 mice using ELISA; format: in vivo
Experimental: as §1, §2
The animals were (n=10/treatment) deeply anesthetized with a mixture of xylazine and ketamine (1:8), perfused with 10 mL of 1x saline for 4 minutes, their brains were excised, homogenized immediately in 0.5 mL ELISA buffer, and centrifuged at 5000xg for 15 minutes at 4° C. to precipitate the pellet. Total Aβ was estimated in the cortex of APP/PS1 mice using ELISA assay kit as per the manufacturer instruction.

[2] = system: ECG parameters (QT interval, QTc interval, QTCf interval and heart rate); test: in vivo effect on ECG parameters in conscious beagle dogs; conditions: at a therapeutically effective dose
hERG channel = hERG channel (Homo sapiens, UniProt Q12809); test: in vitro effect on hERG channel; conditions: at a therapeutically effective dose
hERG channel, sequence (Q12809 whole entry): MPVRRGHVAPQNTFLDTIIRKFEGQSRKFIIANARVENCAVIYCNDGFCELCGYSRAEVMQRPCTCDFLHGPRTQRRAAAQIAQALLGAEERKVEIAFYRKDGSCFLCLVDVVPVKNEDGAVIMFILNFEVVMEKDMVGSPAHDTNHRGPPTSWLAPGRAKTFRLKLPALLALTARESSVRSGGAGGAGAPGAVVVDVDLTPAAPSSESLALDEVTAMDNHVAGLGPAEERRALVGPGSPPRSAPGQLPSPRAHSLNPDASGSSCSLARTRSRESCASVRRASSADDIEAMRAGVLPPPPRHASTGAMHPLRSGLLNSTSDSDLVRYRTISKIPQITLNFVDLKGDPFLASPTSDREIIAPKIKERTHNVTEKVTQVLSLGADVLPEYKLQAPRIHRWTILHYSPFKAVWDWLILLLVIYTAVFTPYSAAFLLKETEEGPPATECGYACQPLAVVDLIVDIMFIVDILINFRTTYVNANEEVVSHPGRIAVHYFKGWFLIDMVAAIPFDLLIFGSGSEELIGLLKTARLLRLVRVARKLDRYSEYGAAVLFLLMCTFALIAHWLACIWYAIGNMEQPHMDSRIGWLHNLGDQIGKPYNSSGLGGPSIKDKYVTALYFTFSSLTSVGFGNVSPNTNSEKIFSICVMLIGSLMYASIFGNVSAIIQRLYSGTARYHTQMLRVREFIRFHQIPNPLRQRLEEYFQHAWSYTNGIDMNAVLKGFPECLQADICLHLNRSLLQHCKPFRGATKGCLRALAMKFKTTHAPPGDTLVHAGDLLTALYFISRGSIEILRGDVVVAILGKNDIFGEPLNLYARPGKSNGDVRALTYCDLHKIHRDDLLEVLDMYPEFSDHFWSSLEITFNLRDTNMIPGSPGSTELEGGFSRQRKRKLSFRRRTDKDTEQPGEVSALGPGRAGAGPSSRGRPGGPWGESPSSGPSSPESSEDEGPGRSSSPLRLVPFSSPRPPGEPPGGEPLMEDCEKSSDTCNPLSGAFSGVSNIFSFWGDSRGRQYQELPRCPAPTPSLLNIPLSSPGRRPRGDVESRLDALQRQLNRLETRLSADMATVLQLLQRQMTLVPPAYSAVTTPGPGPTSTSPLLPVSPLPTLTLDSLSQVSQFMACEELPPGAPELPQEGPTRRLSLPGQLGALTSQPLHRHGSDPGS

[3] = system: ECG parameters (QT interval, QTc interval, QTCf interval and heart rate); test: in vivo effect on ECG parameters in guinea pig; conditions: at a therapeutically effective dose
Aβ plaque = Aβ plaque load (% area fraction) in cortex of Tg APP/PS1 mice using IHC; format: in vivo; conditions: 30 mg/kg orally once a day for three months
Experimental: as §1, §2
Mouse brains (n=5/treatment) were fixed in 4% (w/v) buffered paraformaldehyde (PFA). The brain tissues were processed for paraffin embedding and serial sections ([…]) were cut using microtome (Leica Biosystems Inc., Buffalo Grove, IL, USA). Sections were de-waxed by xylene treatment followed by a brief wash with chloroform to remove the residual xylene. Endogenous peroxidase activity was blocked with methanol containing hydrogen peroxide (3%, v/v) for 30 minutes. […]

[4] = 30 mg/kg orally once a day for three months
[5] = 45 mg/kg orally once a day for three months

SMILES: Cc1cccc(Cl)c1C(=O)NNC(=O)c1ccc(F)c(C#Cc2cnc3ccccc3c2)c1 [Compound 1.21 of the ‘416 publication]
- inhibition at 0.0001 µM (K562 cells): 6%

SMILES: Cc1cccc(Cl)c1C(=O)NNC(=O)c1cccc(C#Cc2cnc3ccccc3c2)c1 [Compound 1.59 of the ‘416 publication]
- inhibition at 0.0001 µM (K562 cells): 2%

SMILES: Cc1ccc(C(=O)NNC(=O)c2c(C)cccc2Cl)cc1C#Cc1cnc2ccc(Cl)cc2c1 [Compound 1.50 of the ‘416 publication]
- inhibition at 0.0001 µM (K562 cells): 0%

SMILES: Cc1cn(-c2cc(NC(=O)c3ccc(C)c(Nc4nccc(-c5cccnc5)n4)c3)cc(C(F)(F)F)c2)cn1 [Nilotinib, nilotinib, reference compound]
- effect on Aβ42 content compared to placebo group (Aβ42; 30 mg/kg p.o.): no statistically significant reduction

SMILES: Cc1ccc(C(=O)NNC(=O)c2c(C)cccc2Cl)cc1C#Cc1cnc2ccccc2c1 [Compound 1, N′-(2-chloro-6-methylbenzoyl)-4-methyl-3-[2-(3-quinolyl)ethynyl]-benzohydrazide]
- % freezing of mice (CFC) compared to placebo treated group (Tg APP/PS1 mice; [4]): significant increase
- % freezing of mice (CFC) compared to placebo treated group (Tg APP/PS1 mice; [5]): significant increase
- higher ratio of brain to plasma concentration compared to nilotinib ([1]; at 1 hour, versus nilotinib): about 40 times
- brain penetration compared with dasatinib ([1]; versus dasatinib): significantly better brain penetration
- ratio of concentration in brain to plasma as compared to nilotinib or dasatinib ([1]; versus nilotinib or dasatinib): significantly higher
- total Aβ content in cortex compared to placebo treated group (total Aβ; [4]): significant reduction
- total Aβ content in cortex compared to placebo treated group (total Aβ; [5]): significant reduction
- cardiovascular side effects: in vivo effect on ECG parameters (QT, QTc, QTCf interval, heart rate) [2]: devoid of cardiovascular side effects
- inhibition at 0.0001 µM (K562 cells): 37%
- potency (inhibition of K562 cell proliferation) (K562 cells; at 0.1 nM, Compound 1 versus similar compounds from the ‘416 publication): significantly higher
- cardiovascular side effects: in vitro effect on hERG channel (hERG channel): devoid of cardiovascular side effects
- cardiovascular side effects: in vivo effect on ECG parameters (QT, QTc, QTCf interval, heart rate) [3]: devoid of cardiovascular side effects
- effect on Aβ42 content compared to placebo group (Aβ42; 30 mg/kg p.o.): statistically significant
- effect on Aβ42 content compared to placebo group (Aβ42; 45 mg/kg p.o.): statistically significant
- Aβ42/Aβ40 ratio, trend over doses (Aβ42; 15, 30, and 45 mg/kg p.o.): dose-dependent reduction
- Aβ42 content, trend over doses (Aβ42; 15, 30, and 45 mg/kg p.o.): dose-dependent reduction
- Aβ plaque (% area fraction) in cortex compared to placebo (Aβ plaque): significantly reduced

SMILES: Cc1ccc(C(=O)NNC(=O)c2c(C)cccc2Cl)cc1C#Cc1ccc2ncccc2c1 [Compound 1.10 of the ‘416 publication]
- inhibition at 0.0001 µM (K562 cells): 0%

SMILES: Cc1ccc(C(=O)NNC(=O)c2c(C)cccc2Cl)cc1C#Cc1cnc2ccc(F)cc2c1 [Compound 1.55 of the ‘416 publication]
- inhibition at 0.0001 µM (K562 cells): 0%
